{
  "source": "patent US20260364072A1",
  "about": "“METHODS FOR PROMOTING EXPANSION OF HUMAN CD34+ CELLS IN VIVO AND FOR PROMOTING NEURAL REGENERATION” (THE REGENTS OF THE UNIVERSITY OF CALIFORNIA, priority 2023, published 2026)",
  "key": {"[1]": {"test_system": "CD34+Lin- cells (sAML50261)", "experiment": "sAML50261 PDX mice, flow cytometry of PB, SP, BM", "assay_type": "in vivo, human cells in Rag2-/-gc-/- mice", "conditions": "10 mg/kg, intravenously, twice a week for 2 weeks", "experimental": "The mouse models were screened by staining the PB of each mouse with a human CD45 mAb. Mice with a threshold of human CD45^+ cells >1% were included in the treatment cohort for Rebecchini. The dosing plan involved administering Rebecsinib at a dose of 10 mg/kg, intravenously, twice a week for 2 weeks, with a total of 5 doses. Single cells were isolated from the mouse organs, including PB, SP, and BM, and subjected to staining with human stem cell markers and lineage cell markers."}, "[2]": {"test_system": "MCL1 and SF3B3 transcripts", "experiment": "Pharmacodynamic splice isoform qRT-PCR in PBMCs from treated NHPs", "assay_type": "in vivo, cynomolgus monkeys", "experimental": "Pharmacodynamic studies were conducted on peripheral blood mononuclear cells (PBMCs) isolated from NHPs treated with escalating doses of Rebecsinib (3 mg/kg, 10 mg/kg, 15 mg/kg or 20 mg/kg) or a vehicle control and collected at 30 minute and 4 hours post-dose.\n(FIG. 29G, FIG. 29H) For in vivo TK and complementary pharmacodynamic studies, NHPs were given a single injection of Rebecsinib at 3-20 mg/kg, or vehicle control, and blood samples were drawn at regular intervals to determine plasma concentrations (FIG. 29G) of the compound along with splice isoform biomarker assays to quantify MCL1 exon skipping in PBMCs isolated from treated animals (FIG. 29H, n=2 animals per group).\nFor quantitative analysis of splice isoform expression, RNA editing rates, and whole gene expression by qRT-PCR, cells or tissue fragments were harvested in RNA lysis buffer and total RNA was extracted using RNeasy mini or micro extraction kits (QIAGEN, Germantown, MD) following the manufacturer's protocol including a DNase incubation step to digest any trace genomic DNA present. Levels of ADAR1 variants and LSC-specific transcripts were quantified by qRT-PCR as previously described.^14 RNA-editing site-specific qRT-PCR (RESSqPCR) was performed for variants in AZIN1 transcripts.^53 Additional species-specific primers were also designed to quantify intron retention rates in cells treated with Rebecsinib as a biomarker of response to RNA splicing modulation. Specifically, for the two-step SYBR-green based assays, as previously described,^7,14,53 100-1000 ng of RNA were subjected to cDNA synthesis using the SUPERSCRIPT III™ (ThermoFisher Scientific) kit followed by qRT-PCR using SYBR GreenER (ThermoFisher Scientific) master mix according to the manufacturer's recommended procedures. qRT-PCR was performed using SYBR GREENER SUPER MIX™ (Life Technologies) on BioRad iQ5™, C1000 TOUCH™, or BioRad CFX384™ instruments. Human splice isoform-specific, RNA editing site-specific qPCR (RESSqPCR)^53. Primer sets that have not been previously published were designed and tested for efficiency followed by analyses in samples exposed to Rebecsinib, with species-specific HPRT primers used as controls. Samples with Ct<35 for the species-specific reference gene, HPRT, were included in analyses. Relative mRNA expression values were calculated using the 2^−ΔCT method, with normalization to untreated or vehicle-treated controls.^54"}, "ADAR1p150": {"test_system": "ADAR1p150", "experiment": "ADAR1p150 protein by intracellular flow cytometry in sAML50261 engrafted mice", "assay_type": "in vivo, human cells in mice", "conditions": "human HSC and HPC, spleens of sAML50261 engrafted mice, vs vehicle", "experimental": "FIG. 30D illustrates a mean fluorescence intensity (MFI) of ADAR1p150 protein levels in human HSCs (CD45^+CD34^+CD38^−Lin^−) and HPCs (CD45^+CD34^+CD38^+Lin^−) from the spleens of sAML50261 engrafted mice treated with Rebecsinib or vehicle;\nFlow cytometry for stem and progenitor cell surface antibody staining was performed as previously described.^14 For phospho-flow, a subset of samples was fixed and permeabilized, then blocked and stained with APC-conjugated ADAR1p150 antibody (cat ab269444, 1:25) and pSTAT3 APC (cat 17-9033-42, 1:10) (Table S2). Fractions were analyzed with the BD LSR FORTESSA™ (Sanford Consortium for Regenerative Medicine Stem Cell Core) and FLOWJO™ software (TreeStar, Ashland, OR).\nIn humanized mouse models, sAML cells (CD34^+) from two unique […] patient samples that were splicing factor mutated or unmutated were utilized, including sAML50261 and sAML2008-5.^14 For in vivo efficacy and therapeutic index studies, sAML CD34^+ cells, or normal human cord blood-derived or aged bone marrow-derived HSPCs (CD34^+), were transplanted (50,000-200,000 cells per mouse) intrahepatically into neonatal Rag2^−/−γc^−/− mice, or intravenously into adult NSG-SGM3 mice (Jackson Laboratories, Bar Harbor, ME). A subset of experiments was performed with normal aged bone marrow cells that were transduced with the lentiviral ADAR1 nanoluc-GFP reporter vector prior to transplant. […]"}, "[3]": {"experiment": "Multi-species (rat, rabbit, NHP) pre-IND studies", "assay_type": "in vivo", "experimental": "[…] Rat and rabbit studies included toxicology analyses, quantification of plasma levels of Rebecsinib, and necropsies to evaluate organ integrity after treatment. For NHP studies, health and ophthalmological evaluations were performed before and after dosing with Rebecsinib, and blood samples were collected for quantification of plasma levels of Rebecsinib and biomarker studies in PBMCs from treated and control animals. All monkeys were returned to the animal colony after the end of the observation period. Toxicokinetic values including mean plasma concentrations and t1/2 values were calculated according to CRO-approved protocols (Charles River and BASi)."}},
  "data": [
    {"smiles": "CC[C@H](OC)[C@@H](C)[C@H]1O[C@@H]1[C@@H](O)[C@H](C)/C=C/C=C(\\C)[C@H]1OC(=O)C[C@H](O)CC[C@@](C)(O)[C@@H](OC(C)=O)/C=C/[C@@H]1C", "note": "[Rebecsinib]", "values": [
      {"measurement": "human CD45+ cells in PB, BM, and SP", "setting": "[1]", "value": "preserved human CD45^+ cells"},
      {"measurement": "CD34+Lin- cell population in SP", "setting": "[1]; p=0.0006, Student's t-test", "value": "significant inhibition"},
      {"measurement": "CD34+Lin- cell population in PB", "setting": "[1]; p=0.0015, Student's t-test", "value": "significant inhibition"},
      {"measurement": "MCL1 exon skipping in PBMCs", "setting": "[2]; NHP, 3, 10, 15 or 20 mg/kg, 30 minute and 4 hours post-dose", "value": "on-target splicing modulation typified by MCL1 exon skipping"},
      {"measurement": "splicing modulation", "setting": "[2]; NHP, PD analyses", "value": "predictable, dose-dependent splicing modulation"},
      {"measurement": "SF3B3 intron retention in PBMCs, 4 hours", "setting": "[2]; NHP, single doses of 3, 10, 15 or 20 mg/kg", "value": "detectable at 4 hours"},
      {"measurement": "SF3B3 intron retention in PBMCs, 30 min", "setting": "[2]; NHP, single doses of 3, 10, 15 or 20 mg/kg, compared with vehicle", "value": "increased at 30 min"},
      {"measurement": "ADAR1p150 protein isoform levels", "setting": "ADAR1p150", "value": "significantly decreased ADAR1p150 protein isoform levels"},
      {"measurement": "systemic toxicity", "setting": "[3]", "value": "no evidence of systemic toxicity"},
      {"measurement": "bioavailability and stability", "setting": "[3]; clinically tractable formulation", "value": "favorable bioavailability and stability"},
      {"measurement": "tolerability in rat, rabbit, NHP", "setting": "[3]; pre-IND studies", "value": "well tolerated"},
      {"measurement": "splicing modulation", "setting": "[3]; rat, rabbit, NHP", "value": "dose-dependent increases in splicing modulation"}
    ]}
  ]
}
